Columns and labels:
[1] = target: T1, recombinant human Meningioma Expressed Antigen 5 (MGEA5), also referred to as O-GlcNAcase (OGA) (Homo sapiens, UniProt O60502); test: OGA biochemical assay (inhibition of FM-GlcNAc hydrolysis, fluorescence); conditions: for Emax: read-out: Enzymatic Emax (%); for IC50: read-out: Enzymatic hOGA, pIC50 (converted)
T1 construct: Full length OGA enzyme was purchased at OriGene (cat #TP322411); purchased OriGene TP322411
T1 sequence (O60502 1-916): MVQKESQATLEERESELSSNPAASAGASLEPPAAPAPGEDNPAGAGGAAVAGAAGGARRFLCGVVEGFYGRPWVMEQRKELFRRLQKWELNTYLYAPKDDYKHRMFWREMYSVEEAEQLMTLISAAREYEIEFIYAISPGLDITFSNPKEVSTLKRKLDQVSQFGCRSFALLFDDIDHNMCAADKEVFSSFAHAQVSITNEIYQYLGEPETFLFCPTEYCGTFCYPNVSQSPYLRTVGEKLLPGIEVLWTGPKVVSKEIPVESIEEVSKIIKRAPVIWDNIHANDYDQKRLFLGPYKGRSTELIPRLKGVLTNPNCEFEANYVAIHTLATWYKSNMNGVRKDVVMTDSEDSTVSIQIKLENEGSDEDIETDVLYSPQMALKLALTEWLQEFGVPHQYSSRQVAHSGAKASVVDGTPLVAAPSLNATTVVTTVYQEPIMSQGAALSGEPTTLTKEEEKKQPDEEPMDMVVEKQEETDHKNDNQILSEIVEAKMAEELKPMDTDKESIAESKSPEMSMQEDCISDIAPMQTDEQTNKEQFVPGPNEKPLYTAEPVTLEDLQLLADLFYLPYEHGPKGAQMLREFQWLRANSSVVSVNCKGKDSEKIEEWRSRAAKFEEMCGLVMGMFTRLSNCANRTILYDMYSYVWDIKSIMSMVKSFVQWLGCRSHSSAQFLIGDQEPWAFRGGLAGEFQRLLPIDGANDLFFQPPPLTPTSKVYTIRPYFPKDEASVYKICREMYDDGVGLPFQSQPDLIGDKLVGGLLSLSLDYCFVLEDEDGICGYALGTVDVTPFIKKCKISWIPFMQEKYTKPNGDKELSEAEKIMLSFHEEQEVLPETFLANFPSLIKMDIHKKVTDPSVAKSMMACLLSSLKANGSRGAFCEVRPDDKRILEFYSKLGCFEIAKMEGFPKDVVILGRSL
Procedure, shortened: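 Full-length OGA at 2 nM was pre-incubated 60 min at room temperature with compound, then FM-GlcNAc at 100 uM final was added in citrate/phosphate buffer pH 7.2 with 0.005% Tween-20. After 6 h at room temperature, carbonate pH 11.0 stopped the reaction. Fluorescence read at 485/538 nm; IC50 and Hill coefficient from curve fit against no-inhibitor and saturating-standard controls.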

[2] = target: T2, OGA (Homo sapiens, UniProt O60502); test: OGA cellular assay (ICC detection of O-GlcNAcylated proteins in HEK293 cells inducible for P301L mutant human Tau); type: cell-based; conditions: 6 hours incubation; for Emax: HEK293, HEK293 cells inducible for P301L mutant human Tau; for Emax / Cellular Emax (%): maximum = Thiamet G 200 uM; for EC50 / Cellular Emax (%): HEK293 cells inducible for P301L mutant human Tau; for EC50: read-out: Cellular hOGA, pEC50 (converted)
T2 construct: HEK293 cells inducible for P301L mutant human Tau (isoform 2N4R) were established at Janssen; endogenous in cells; host or cells: HEK293 cells inducible for P301L mutant human Tau (2N4R)
T2 sequence (O60502 1-916): T1 sequence (O60502 1-916)
Procedure, shortened: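 HEK293 cells with inducible P301L 2N4R Tau, seeded in low-glucose medium, were exposed to compounds for 6 hours (0.2% DMSO), then PFA-fixed and stained with CTD110.6. Imaging intensity at 488 nm measured O-GlcNAcylation, with Hoechst nuclei counts for toxicity. IC50s came from non-linear regression, with Thiamet G at 200 uM as maximum inhibition.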

| Emax [1] [%] | IC50 [1] [nM] | Emax [2] [%] | EC50 [2] [nM] | Enzymatic Emax (%) [1] [%] | Cellular Emax (%) [2] [%] | SMILES |
| --- | --- | --- | --- | --- | --- | --- |
| 98 | 200 | 57 | 501 |  |  | Cc1ccnc(OC2CCN(C(C)c3ccc4c(n3)OCCO4)CC2)c1 (stereo not drawn) [Compound 44] |
| 92 | 1000 | 17 | > 1000 |  |  | Cc1cc(OC2CCN(C(C)c3cnc4c(c3)OCCO4)CC2)cc(C(F)(F)F)n1 (stereo not drawn) [Compound 19] |
|  | 12.6 |  | 126 | 100 | 83 | COc1cc(OC2CCN(C(C)c3ccc4c(n3)OCCO4)CC2)cc(C)n1 (single isomer, unassigned) [Compound 54] |
| 95 | 39.8 | 84 | 117 |  |  | Cc1cc(OC2CCN(C(C)c3ccc4c(n3)OCC4)CC2)cc(C)n1 (stereo not drawn) [Compound 60] |
| 70 | 3980 | -4 | > 1000 |  |  | CC(c1ccc2c(n1)OCCO2)N1CCC(C)(Oc2ccc(F)cc2)CC1 (stereo not drawn) [Compound 131] |
| 101 | 7.94 | 79 | 100 |  |  | Cc1ncc(OC2CCN(C(C)c3nc4c(cc3F)OCCO4)CC2)nc1C (stereo not drawn) [Compound 110] |
| 96 | 501 | 16 | > 1000 |  |  | CC(c1ccc2c(n1)OCCO2)N1CCC(Oc2ncc(F)cc2F)CC1 (stereo not drawn) [Compound 52] |
| 98 | 398 | 23 | > 1000 |  |  | COc1cc(OC2CCN(C(C)c3cnc4c(c3)OCCO4)CC2)cc(C)n1 (stereo not drawn) [Compound 37] |
| 96 | 158 | 51 | 631 |  |  | C[C@@H](c1ccc2c(n1)OCCO2)N1CCC(Oc2ccc(C#N)nn2)CC1 [Compound 107] |
|  | > 10000 |  | > 1000 | 29 | −14 | Cc1cc(OC2CCN(C(C)c3ccc4c(n3)OCCO4)CC2)cc(C)n1 (single isomer, unassigned) [Compound 2] |
| 100 | 39.8 | 59 | 245 |  |  | Cc1cc(OC2CCN(C(C)c3ccc4c(n3)OCCO4)CC2)cc(C(C)C)n1 (stereo not drawn) [Compound 130] |
| 101 | 31.6 | 60 | 251 |  |  | COc1cc(OC2CCN(C(C)c3ccc4c(n3)OCCO4)CC2)ccn1 (stereo not drawn) [Compound 72] |
| 100 | 20 | 82 | 126 |  |  | COc1cc(OC2CCN(C(C)c3ccc4c(n3)OCCO4)CC2)cc(C)n1 (stereo not drawn) [Compound 14] |
| -11 | > 10000 | -3 | > 1000 |  |  | C[C@H](c1nc2c(cc1F)OCCO2)N1CCC(Oc2ccc(C#N)nn2)CC1 (single isomer, unassigned) [Compound 85] |
| 100 | 15.8 | 72 | 79.4 |  |  | Cc1cc(OC2CCN(C(C)c3nc4nc(C)sc4cc3F)CC2)cc(C)n1 (stereo not drawn) [Compound 32] |
| 100 | 126 | 35 | > 1000 |  |  | Cc1cc(C)nc(OC2CCN(C(C)c3ccc4c(n3)OCCO4)CC2)c1 (stereo not drawn) [Compound 71] |
| 97 | 25.1 | 66 | 126 |  |  | CC(c1nc2c(cc1F)OCCO2)N1CCC(Oc2ccc(C#N)nn2)CC1 (stereo not drawn) [Compound 92] |
| 96 | 501 | 8 | > 1000 |  |  | Cc1cc(OC2CCN(C(C)c3cnc4c(c3)OCCO4)CC2)nc(C)n1 (stereo not drawn) [Compound 13] |
| 99 | 50.1 | 74 | 501 |  |  | Cc1ccc(OC2CCN(C(C)c3ccc4c(n3)OCCO4)CC2)cn1 (stereo not drawn) [Compound 41] |
| 94 | 39.8 | 81 | 158 |  |  | Cc1cc(COC2CCN(C(C)c3ccc4c(n3)OCC4)CC2)cc(C)n1 (stereo not drawn) [Compound 154] |
| 94 | 12.6 | 75 | 63.1 |  |  | Cc1cc(COC2CCN(C(C)c3nc4c(cc3F)OCCO4)CC2)cc(C)n1 (stereo not drawn) [Compound 159] |

From patent publication US20210122763A1, “OGA INHIBITOR COMPOUNDS” (Janssen Pharmaceutica NV, priority 2018, published 2021)
